Data as given in patent US7989422B2, “Antibacterial agents” (Alchemia Limited, priority 2005, dated 2011).

Tests used:
Type in all cases: cell-based
E. Faecium 51299 VanB = assay: MIC against vancomycin-resistant enterococcus 51299 (VanB), microbroth dilution; settings: MIC class; ATCC 51299 VanB
Experimental: (§1) Testing was conducted to determine the in vitro antimicrobial activity of a series of compounds synthesised by Alchemia Pty Ltd. The antimicrobial activity of each compound was determined at a single concentration (128 μg/mL) in Mueller Hinton (MH) broth against the ATCC type strain of Staphylococcus aureus. […] Compounds showing activity at concentrations up to 32-64 μg/mL in the presence/absence of serum were then tested for MIC activity against a standard set of 5 microorganisms comprising of ATCC type strains of MRSA, Enterococcus faecalis, Enterococcus faecium, VRE and Escherichia coli. CLSI (formerly NCCLS) microbroth dilution technique was used.
(§2) Each compound is initially dissolved in 100 μL of DMSO. Each solution is then diluted further in 0.9 mL of sterile MH broth to give a total volume of 1 mL (1000 μg/mL) This stock solution is then further diluted in MH broth to give a test solution with final concentration of 128 μg/mL using the following formula: 0.5 ml stock in 3.4 ml MH broth
(§3) Each test organism was subcultured from the −70° C. deep freezer onto horse blood agar. The plates were streaked to obtain isolated colonies and incubated at 35° C. in non-CO2 incubator for 24 hours. A second subculture was carried out onto horse blood agar. For each test organism, 1-2 colonies were selected from an 18-24 hour culture and inoculated into 2 ml sterile MH broth. The turbidity was adjusted to 0.5 McFarland standard.
(§4) A 1:10 dilution in MH broth (200 μL in 2 ml MH) of the 0.5 McFarland control was prepared. 5 μL of this diluted solution was used to inoculate the trays.
(§5) The trays were prepared in a similar way as mentioned above and incubated at 35° C. in a non-CO2 incubator for 18-24 hours. The plates were examined for growth after the incubation time.
(§6) After 18-24 hour incubation 5 μL from each well was then inoculated onto horse blood agar and incubated for 18-24 hours at 35° C. in a non-CO2 incubator.
(§7) If the test organism is sensitive to the compound in the broth the growth will be inhibited. Similarly, if the organism grows on the antibiotic containing medium then it is resistant to this particular antibiotic.

[1] = test system: Enterococcus faecium ATCC 35667; assay: MIC against E. faecium, microbroth dilution; settings: MIC class
Experimental: as §1, §2, §3, §4, §5, §6, §7

[2] = test system: Staphylococcus aureus ATCC 25923; assay: MIC against S. aureus, microbroth dilution in MH broth, without or with 5% horse serum; settings: MIC class; S. aureus ATCC 25923
Experimental: as §1, §2, §3, §4
100 μL of sterile MH broth was added in columns 2-12. 200 μL of test solution was added in column 1. 100 μL was transferred in column 2 giving a ½ dilution. 100 μL from column 2 was then transferred to column 3 (¼ dilution). This dilution was carried on until column 12. A second tray containing the same test solution was inoculated in a similar manner using sterile MH broth with 5% heat inactivated horse serum. 5 μL of organism solution was then added to each well. The plates were then sealed and incubated at 35° C. in a non-CO2 incubator for 18-24 hours. The plates were examined for growth after the incubation time.
as §7

[3] = test system: Staphylococcus aureus (MRSA) ATCC 33591; assay: MIC against MRSA, microbroth dilution; settings: MIC class
Experimental: as §1, §2, §3, §4, §5, §6, §7

[4] = test system: Enterococcus faecalis ATCC 29212; assay: MIC against E. faecalis, microbroth dilution; settings: MIC class
Experimental: as §1, §2, §3, §4, §5, §6, §7

SMILES	E. Faecium 51299 VanB activity (E. Faecium 51299 VanB)	E. Faecium 35667 activity [1]	S. Aureus 25923 activity [2]	S. Aureus 33591 MRSA activity [3]	E. Fecalis 29212 activity [4]
Nc1ccccc1OC1C(NC(=O)Nc2ccc(Cl)c(C(F)(F)F)c2)COC(CO)C1NC(=O)C(N)Cc1ccc(-c2ccccc2)cc1 (single isomer, unassigned) [Compound 70]	− (“−”: MIC (μg/mL): MIC > 64)	+ (“+”: MIC (μg/mL): 64 ≧ MIC > 16)	+ (“+”: MIC (μg/mL): 64 ≧ MIC > 16)	++ (“++”: MIC (μg/mL): MIC ≦ 16)	+ (“+”: MIC (μg/mL): 64 ≧ MIC > 16)
Nc1ccccc1OC1C(NC(=O)Nc2ccc(Cl)c(C(F)(F)F)c2)COC(CO)C1NC(=O)C(N)Cc1ccc(-c2ccccc2)cc1 (single isomer, unassigned) [Compound 71]	+ (“+”: MIC (μg/mL): 64 ≧ MIC > 16)	++ (“++”: MIC (μg/mL): MIC ≦ 16)	++ (“++”: MIC (μg/mL): MIC ≦ 16)	++ (“++”: MIC (μg/mL): MIC ≦ 16)	+ (“+”: MIC (μg/mL): 64 ≧ MIC > 16)
CCCCCCCCCCNC1C(CO)OCC(NC(=O)Nc2ccc(Cl)c(C(F)(F)F)c2)C1O (stereo not drawn) [Compound 50]	− (“−”: MIC (μg/mL): MIC > 64)	+ (“+”: MIC (μg/mL): 64 ≧ MIC > 16)	+ (“+”: MIC (μg/mL): 64 ≧ MIC > 16)	+ (“+”: MIC (μg/mL): 64 ≧ MIC > 16)	+ (“+”: MIC (μg/mL): 64 ≧ MIC > 16)
Nc1ccccc1OC1C(NC(=O)Nc2ccc(Cl)c(C(F)(F)F)c2)COC(CO)C1NS(=O)(=O)c1ccc(-c2ccccc2)cc1 (stereo not drawn) [Compound 62]	− (“−”: MIC (μg/mL): MIC > 64)	− (“−”: MIC (μg/mL): MIC > 64)	+ (“+”: MIC (μg/mL): 64 ≧ MIC > 16)	++ (“++”: MIC (μg/mL): MIC ≦ 16)	− (“−”: MIC (μg/mL): MIC > 64)
Nc1ccccc1OC1C(NC(=O)Nc2ccc(Cl)c(C(F)(F)F)c2)COC(CO)C1NC(=O)c1ccc(-c2ccccc2)cc1 (stereo not drawn) [Compound 69]	− (“−”: MIC (μg/mL): MIC > 64)	− (“−”: MIC (μg/mL): MIC > 64)	+ (“+”: MIC (μg/mL): 64 ≧ MIC > 16)	− (“−”: MIC (μg/mL): MIC > 64)	− (“−”: MIC (μg/mL): MIC > 64)
Nc1ccccc1OC1C(NS(=O)(=O)c2ccc(C(F)(F)F)cc2)COC(CO)C1NC(=O)C(N)Cc1ccc(-c2ccccc2)cc1 (stereo not drawn) [Compound 79]	− (“−”: MIC (μg/mL): MIC > 64)	− (“−”: MIC (μg/mL): MIC > 64)	+ (“+”: MIC (μg/mL): 64 ≧ MIC > 16)	+ (“+”: MIC (μg/mL): 64 ≧ MIC > 16)	− (“−”: MIC (μg/mL): MIC > 64)
O=C(NC1C(CO)OCC(n2c(O)nc3cc(C(F)(F)F)cc(Cl)c32)C1O)c1ccc(-c2ccccc2)cc1 (stereo not drawn) [Compound 153]	− (“−”: MIC (μg/mL): MIC > 64)	− (“−”: MIC (μg/mL): MIC > 64)	+ (“+”: MIC (μg/mL): 64 ≧ MIC > 16)	+ (“+”: MIC (μg/mL): 64 ≧ MIC > 16)	+ (“+”: MIC (μg/mL): 64 ≧ MIC > 16)
Nc1nc2cc(C(F)(F)F)cc(Cl)c2n1C1COC(CO)C(NC(=O)c2ccc(-c3ccccc3)cc2)C1O (stereo not drawn) [Compound 155]	− (“−”: MIC (μg/mL): MIC > 64)	− (“−”: MIC (μg/mL): MIC > 64)	+ (“+”: MIC (μg/mL): 64 ≧ MIC > 16)	+ (“+”: MIC (μg/mL): 64 ≧ MIC > 16)	− (“−”: MIC (μg/mL): MIC > 64)
O=C(NC1C(CO)OCC(n2cnc3cc(C(F)(F)F)cc(Cl)c32)C1O)c1ccc(-c2ccccc2)cc1 (stereo not drawn) [Compound 156]	− (“−”: MIC (μg/mL): MIC > 64)	+ (“+”: MIC (μg/mL): 64 ≧ MIC > 16)	+ (“+”: MIC (μg/mL): 64 ≧ MIC > 16)	− (“−”: MIC (μg/mL): MIC > 64)	− (“−”: MIC (μg/mL): MIC > 64)
NC(Cc1ccc(-c2ccccc2)cc1)C(=O)NC1C(CO)OCC(n2c(O)nc3cc(C(F)(F)F)cc(Cl)c32)C1O (stereo not drawn) [Compound 161]	− (“−”: MIC (μg/mL): MIC > 64)	− (“−”: MIC (μg/mL): MIC > 64)	+ (“+”: MIC (μg/mL): 64 ≧ MIC > 16)	+ (“+”: MIC (μg/mL): 64 ≧ MIC > 16)	+ (“+”: MIC (μg/mL): 64 ≧ MIC > 16)
Nc1nc2cc(C(F)(F)F)cc(Cl)c2n1C1COC(CO)C(NC(=O)C(N)Cc2ccc(-c3ccccc3)cc2)C1O (stereo not drawn) [Compound 163]	− (“−”: MIC (μg/mL): MIC > 64)	− (“−”: MIC (μg/mL): MIC > 64)	+ (“+”: MIC (μg/mL): 64 ≧ MIC > 16)	+ (“+”: MIC (μg/mL): 64 ≧ MIC > 16)	+ (“+”: MIC (μg/mL): 64 ≧ MIC > 16)
CCCCCC(C)CCC(=O)NC1C(CO)OCC(n2c(O)nc3cc(C(F)(F)F)cc(Cl)c32)C1O (stereo not drawn) [Compound 177]	− (“−”: MIC (μg/mL): MIC > 64)	+ (“+”: MIC (μg/mL): 64 ≧ MIC > 16)	+ (“+”: MIC (μg/mL): 64 ≧ MIC > 16)	+ (“+”: MIC (μg/mL): 64 ≧ MIC > 16)	− (“−”: MIC (μg/mL): MIC > 64)
CCCCCC(C)CCC(=O)NC1C(CO)OCC(n2c(S)nc3cc(C(F)(F)F)cc(Cl)c32)C1O (stereo not drawn) [Compound 178]	− (“−”: MIC (μg/mL): MIC > 64)	− (“−”: MIC (μg/mL): MIC > 64)	+ (“+”: MIC (μg/mL): 64 ≧ MIC > 16)	− (“−”: MIC (μg/mL): MIC > 64)	− (“−”: MIC (μg/mL): MIC > 64)
CCCCCC(C)CCC(=O)NC1C(CO)OCC(n2c(N)nc3cc(C(F)(F)F)cc(Cl)c32)C1O (stereo not drawn) [Compound 179]	− (“−”: MIC (μg/mL): MIC > 64)	− (“−”: MIC (μg/mL): MIC > 64)	+ (“+”: MIC (μg/mL): 64 ≧ MIC > 16)	− (“−”: MIC (μg/mL): MIC > 64)	− (“−”: MIC (μg/mL): MIC > 64)
CCCCCCCCCCCCC(N)C(=O)NC1C(CO)OCC(n2c(O)nc3cc(C(F)(F)F)ccc32)C1O (stereo not drawn) [Compound 181]	+ (“+”: MIC (μg/mL): 64 ≧ MIC > 16)	+ (“+”: MIC (μg/mL): 64 ≧ MIC > 16)	+ (“+”: MIC (μg/mL): 64 ≧ MIC > 16)	++ (“++”: MIC (μg/mL): MIC ≦ 16)	+ (“+”: MIC (μg/mL): 64 ≧ MIC > 16)
CCCCCCCCCCCCC(N)C(=O)NC1C(CO)OCC(n2c(S)nc3cc(C(F)(F)F)ccc32)C1O (stereo not drawn) [Compound 182]	++ (“++”: MIC (μg/mL): MIC ≦ 16)	++ (“++”: MIC (μg/mL): MIC ≦ 16)	++ (“++”: MIC (μg/mL): MIC ≦ 16)	++ (“++”: MIC (μg/mL): MIC ≦ 16)	++ (“++”: MIC (μg/mL): MIC ≦ 16)
CC(C)(C)c1ccc(CNc2nc3cc(C(F)(F)F)cc(Cl)c3n2C2C(CO)OCC(NS(=O)(=O)c3ccc(C(F)(F)F)cc3)C2O)cc1 (stereo not drawn) [Compound 276]			+ (“+”: MIC (μg/mL): 64 ≧ MIC > 16)		
O=S(=O)(NC1COC(CO)C(n2c(NCc3cccc(Oc4ccccc4)c3)nc3cc(C(F)(F)F)cc(Cl)c32)C1O)c1ccc(C(F)(F)F)cc1 (stereo not drawn) [Compound 277]			+ (“+”: MIC (μg/mL): 64 ≧ MIC > 16)		
O=S(=O)(NC1COC(CO)C(n2c(NCc3ccc(-c4ccccc4)cc3)nc3cc(C(F)(F)F)cc(Cl)c32)C1O)c1ccc(C(F)(F)F)cc1 (stereo not drawn) [Compound 278]			++ (“++”: MIC (μg/mL): MIC ≦ 16)		
O=S(=O)(NC1COC(CO)C(n2c(NCc3ccc4ccccc4c3)nc3cc(C(F)(F)F)cc(Cl)c32)C1O)c1ccc(C(F)(F)F)cc1 (stereo not drawn) [Compound 279]			++ (“++”: MIC (μg/mL): MIC ≦ 16)		
